Results reported in US10391101B2, “Derivatives of 7-fluoro-8-chloro-5H-dibenzo [B,E,] [1,4] diazepine and use thereof” (VALENTEK LLC, priority 2014, dated 2019).

Columns and labels:
[1] = 5-oxytriptophan hyperkinesia (head twitches); type: in vivo; details: mice, intragastric 1.0-10.0 mg/kg, 5-oxytriptophan 300 mg/kg i.p.
Procedure: It is known that the precursor of serotonin (5-oxytriptophan, 5-OT) causes a specific hyperkinesia in mice in the form of head-twitching with average duration of 30-60 minutes, which is explained by the activation of serotonergic system of the CNS. […] Each experimental group included 10 male mice weighing 20-22 g. The test substances were administered intragastrically at 1.0, 2.5, 5.0 and 10.0 mg/kg 30 minutes before the intraperitoneal administration of 5-oxytriptophan at a dose of 300 mg/kg. We counted the number of head twitches per 1 minute at intervals of 10 minutes during 60 minutes.

[2] = Sub-chronic toxicity, morphological parameters of blood (neutrophil kinetics); type: in vivo; details: rats, intragastric 5 mg/kg daily for 28 days
Source text: The positive effect of the introduction of fluorine has been observed in pre-clinical studies of sub-chronic toxicity. […]. Increase in the number of neutrophils has been observed among rats after administration of aminoglutethimide, which also involves a high risk of agranulocytosis (Ng, W. et. al., Chem Res Toxicol, 2013, 26, 1272-81). Thus changes in the kinetics of neutrophils after intake of the medication can serve as a biomarker to predict the risk of agranulocytosis.
The neutrophil kinetics has been studied within comparative tests of sub-chronic toxicity. Studies have been conducted using rats upon intragastric administration of the substance at a dose of 5 mg/kg. The test substances were administered daily for 28 days. Each experimental group was composed of 10 animals of each sex.

[3] = Sedation study, total distance traveled; details: CF-1 mice
[4] = cited from earlier work
[5] = Leucht et al., Lancet 2013; cited from earlier work
M4 muscarinic receptor = target: T1, M4 muscarinic receptor (Homo sapiens, UniProt P08173); experiment: cell-based
T1 sequence (P08173 1-479): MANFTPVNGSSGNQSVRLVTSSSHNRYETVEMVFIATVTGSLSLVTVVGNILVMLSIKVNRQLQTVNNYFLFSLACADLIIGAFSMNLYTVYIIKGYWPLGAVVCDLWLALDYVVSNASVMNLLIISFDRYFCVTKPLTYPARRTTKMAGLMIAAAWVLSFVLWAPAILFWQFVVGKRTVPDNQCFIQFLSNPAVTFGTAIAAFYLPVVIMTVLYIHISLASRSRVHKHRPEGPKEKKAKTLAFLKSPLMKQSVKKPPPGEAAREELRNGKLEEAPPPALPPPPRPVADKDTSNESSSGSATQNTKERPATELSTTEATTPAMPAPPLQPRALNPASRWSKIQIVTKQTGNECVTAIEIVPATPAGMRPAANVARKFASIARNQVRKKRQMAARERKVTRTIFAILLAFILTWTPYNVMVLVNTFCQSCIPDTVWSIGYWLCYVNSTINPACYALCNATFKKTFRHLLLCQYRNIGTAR
Procedure: (§1) Functional experiments were performed in the set-up of agonism and antagonism. In the set-up of agonism the test substance was added directly to the cells expressing the receptor and was determined as the dependence of the response intensity on the substance concentration. Concentration at which the half-peak response (EC50) could be reached served as a measure of activity of agonists.
(§2) In the set-up of antagonism, the ability of test substances to block the action of agonists was assessed. For this purpose, cells were incubated with the test substances, then the reference agonists were added in the system and the functional response was determined.
The curves of dependence of functional response on the concentration of compounds for the receptor were made; the level of second messenger—cAMP determined according to the fluorescence after the lysis of cell expressing the receptor was taken as a criterion.

D4 dopamine receptors = target: T2, D4 dopamine receptors (Homo sapiens, UniProt P21917); experiment: D4 dopamine receptor antagonism, Kb from IC50 (cAMP level); type: cell-based; details: for Kb: determined by IC50 values in the set-up of antagonism; for Therapeutic window (Kb, D2/Kb, D4): ratio of the applicant's Kb values
T2 sequence (P21917 1-419): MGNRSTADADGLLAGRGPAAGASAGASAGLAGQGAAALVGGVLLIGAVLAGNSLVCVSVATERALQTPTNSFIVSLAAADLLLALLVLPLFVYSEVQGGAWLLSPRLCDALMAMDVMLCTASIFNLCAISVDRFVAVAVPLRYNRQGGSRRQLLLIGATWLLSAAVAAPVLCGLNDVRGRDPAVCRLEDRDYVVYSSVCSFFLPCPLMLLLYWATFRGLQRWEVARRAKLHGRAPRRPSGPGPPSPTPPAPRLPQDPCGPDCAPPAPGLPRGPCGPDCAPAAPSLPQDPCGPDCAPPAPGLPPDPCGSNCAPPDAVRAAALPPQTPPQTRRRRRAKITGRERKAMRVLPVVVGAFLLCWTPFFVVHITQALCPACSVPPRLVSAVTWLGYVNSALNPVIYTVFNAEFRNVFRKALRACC
Procedure: (§3) The response on cells expressing D2 receptors was determined according to the change in the cell conductibility induced by redistribution of intracellular calcium. For D4 receptor the level of second messenger—cAMP was taken as the criterion.

H1 receptor = H1 receptor (Homo sapiens, UniProt P35367); experiment: H1 histamine receptor functional experiment, antagonism set-up (Fluo-4 NW Ca2+ fluorescence); type: cell-based
Sequence of H1 receptor (P35367 whole entry): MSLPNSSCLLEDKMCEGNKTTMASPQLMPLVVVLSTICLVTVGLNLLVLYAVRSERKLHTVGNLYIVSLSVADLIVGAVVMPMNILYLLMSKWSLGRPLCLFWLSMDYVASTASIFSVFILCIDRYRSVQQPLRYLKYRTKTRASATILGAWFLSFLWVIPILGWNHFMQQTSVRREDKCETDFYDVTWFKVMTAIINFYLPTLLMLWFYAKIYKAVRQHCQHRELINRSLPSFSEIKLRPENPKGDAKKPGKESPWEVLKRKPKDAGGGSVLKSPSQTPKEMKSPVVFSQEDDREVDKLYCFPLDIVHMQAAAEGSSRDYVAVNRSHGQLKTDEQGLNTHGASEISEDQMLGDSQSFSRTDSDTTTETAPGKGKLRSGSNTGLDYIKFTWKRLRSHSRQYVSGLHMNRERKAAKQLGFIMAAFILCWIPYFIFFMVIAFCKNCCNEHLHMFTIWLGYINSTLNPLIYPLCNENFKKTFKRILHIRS
Procedure: (§4) The functional activity of compounds on the H4 receptor was determined according to the change in the cell conductibility induced by redistribution of intracellular calcium. The activity for H1 receptor was determined according to the fluorescence of Fluo-4 NW indicator introduced into cells induced by the change in Ca2+ ion concentration in the cytosol.
as §1, §2

D2 dopamine receptors = D2 dopamine receptors (Homo sapiens, UniProt P14416); experiment: cell-based; details: determined by IC50 values in the set-up of antagonism
Sequence of D2 dopamine receptors (P14416 whole entry): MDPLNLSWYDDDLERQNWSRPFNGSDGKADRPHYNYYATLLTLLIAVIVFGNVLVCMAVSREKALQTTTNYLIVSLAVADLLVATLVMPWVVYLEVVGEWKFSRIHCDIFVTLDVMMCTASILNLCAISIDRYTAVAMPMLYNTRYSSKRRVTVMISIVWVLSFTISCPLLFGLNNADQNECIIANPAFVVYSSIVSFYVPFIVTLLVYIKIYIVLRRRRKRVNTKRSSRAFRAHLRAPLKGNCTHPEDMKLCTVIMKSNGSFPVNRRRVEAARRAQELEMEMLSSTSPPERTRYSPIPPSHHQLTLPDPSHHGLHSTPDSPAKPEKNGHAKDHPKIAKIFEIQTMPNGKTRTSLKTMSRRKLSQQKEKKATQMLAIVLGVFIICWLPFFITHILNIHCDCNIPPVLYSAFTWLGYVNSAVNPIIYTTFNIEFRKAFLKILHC
Procedure: as §3

[6] = Metabolism and distribution of fluoroclozapine in tissues; details: rats, single oral fluoroclozapine 10 mg/kg
[7] = tested on: family of adrenergic receptors; experiment: Panel of G-protein-coupled receptors, adrenergic receptors; details: GPCR panel
Source text: In conjunction with the results of preliminary toxicological studies, the data indicates a reduction in the risk of autonomic dysfunctions, such as tachysystole, orthostatism, accommodation disorder, dysfunction of gastrointestinal tract and urination, weight gain, lack of coordination of muscle movements.

M1 receptors = target: T3, M1 receptors (Homo sapiens, UniProt P11229); experiment: M1 receptor activation functional study (Fluo-4 NW Ca2+ fluorescence); type: cell-based; details: concentration-response curves, FIG. 2
T3 sequence (P11229 1-460): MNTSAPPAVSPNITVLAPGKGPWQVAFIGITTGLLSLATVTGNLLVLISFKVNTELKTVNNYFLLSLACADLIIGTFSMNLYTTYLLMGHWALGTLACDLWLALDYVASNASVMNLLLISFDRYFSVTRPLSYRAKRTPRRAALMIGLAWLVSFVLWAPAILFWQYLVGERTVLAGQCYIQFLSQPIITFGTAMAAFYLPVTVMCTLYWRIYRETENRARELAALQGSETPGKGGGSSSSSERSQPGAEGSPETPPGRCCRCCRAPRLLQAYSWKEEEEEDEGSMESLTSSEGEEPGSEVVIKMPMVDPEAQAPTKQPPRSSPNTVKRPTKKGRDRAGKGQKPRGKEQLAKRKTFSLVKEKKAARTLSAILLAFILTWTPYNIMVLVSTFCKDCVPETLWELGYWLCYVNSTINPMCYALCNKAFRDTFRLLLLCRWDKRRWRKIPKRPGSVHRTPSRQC
Procedure: The activity was determined according to the fluorescence of Fluo-4 NW indicator introduced into cells induced by the change in Ca2+ ion concentration in the cytosol.

H4 receptor = H4 receptor (Homo sapiens, UniProt Q9H3N8); experiment: H4 histamine receptor functional experiment, agonism set-up (cell conductibility); type: cell-based
Sequence of H4 receptor (Q9H3N8 whole entry): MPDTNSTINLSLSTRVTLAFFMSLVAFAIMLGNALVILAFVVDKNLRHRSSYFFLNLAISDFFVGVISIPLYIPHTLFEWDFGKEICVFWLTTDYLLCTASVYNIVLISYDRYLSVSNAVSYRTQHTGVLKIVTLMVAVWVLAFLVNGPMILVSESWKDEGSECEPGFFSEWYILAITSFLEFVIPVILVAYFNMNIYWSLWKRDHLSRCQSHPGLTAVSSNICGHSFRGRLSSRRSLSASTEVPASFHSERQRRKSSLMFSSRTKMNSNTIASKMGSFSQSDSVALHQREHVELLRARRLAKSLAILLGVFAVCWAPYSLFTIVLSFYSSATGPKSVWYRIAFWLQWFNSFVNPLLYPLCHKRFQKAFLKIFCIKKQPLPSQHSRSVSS
Procedure: as §4, §1, §2

SMILES | Basophils [2] | ESR [2] | Eosinophils [2] | Hemoglobin [2] | Ht [2] | Lymphocytes [2] | MCH [2] | MCHC [2] | MCV [2] | Metamyelocytes [2] | Monocytes [2] | Myelocytes [2] | Number of circulating neutrophils in peripheral blood versus control group [2] | PLT count [2] | Plasma cells [2] | RBC count [2] | Rt [2] | Segmented neutrophils [2] | Stab neutrophiles [2] | WBC count [2] | also measured
CN1CCN(C2=Nc3cc(Cl)ccc3Nc3ccccc32)CC1 [Clozapine, reference compound] | 0.6 ± 0.3% | 3.8 ± 0.4 mm/h | 1.0 ± 0.5% | 154.6 ± 1.9 g/L | 43.3 ± 0.5% | 66.6 ± 2.8% | 18.4 ± 0.1 pg | 357.4 ± 1.9 g/L | 51.6 ± 0.2 fL | 0.0 ± 0.0% | 6.4 ± 0.9% | 0.0 ± 0.0% | significant increase in the number of circulating neutrophils | 617.6 ± 43.2 10^9/l | 0.0 ± 0.0% | 8.39 ± 0.06 10^12/l | 80.8 ± 4.1 10^9/l | 21.2 ± 2.0% | 4.6 ± 0.7 % | 11.6 ± 1.1 10^9/l | Inhibition of twitches induced by 5-OT [1]: most evident inhibition of twitches; Sedation: total distance traveled by animals ([3]; oral 1, 5 and 10 mg/kg): significantly reduced; Patients resistant to typical neuroleptics in whom positive symptoms are weakened ([4]; human, in vivo): 30-60%; Patients with treatment-resistant schizophrenia whose condition improves ([4]; long-term use): 60%; Increase in the risk of sedation [5]: 8.8 times
Fc1cc2c(cc1Cl)N=C(N1CCNCC1)c1ccccc1N2 [Desmethylfluoroclozapine, 11-(piperazine-1-yl)-7-fluoro-8-chloro-5H-dibenzo[b,e][1,4]diazepine] | 0.6 ± 0.3% | 4.2 ± 0.4 mm/h | 1.0 ± 0.5% | 153.4 ± 2.4 g/L | 42.5 ± 0.5% | 66.6 ± 2.8% | 18.4 ± 0.1 pg | 360.8 ± 2.2 g/L | 50.9 ± 0.2 fL | 0.0 ± 0.0% | 6.2 ± 1.0% | 0.0 ± 0.0% | did not differ so much different from that of the control group | 653.4 ± 29.8 10^9/l | 0.0 ± 0.0% | 8.35 ± 0.07 10^12/l | 75.6 ± 3.1 10^9/l | 21.4 ± 1.7% | 4.2 ± 0.4% | 11.7 ± 0.9 10^9/l | Activating concentration relative to that of norclozapine (M4 muscarinic receptor; M4, agonism): 30 times; EC50 (M4 muscarinic receptor; M4, agonism set-up): 3.2 µM; IC50 (M4 muscarinic receptor; M4, antagonism set-up): > 10 µM; Kb (D4 dopamine receptors): 0.35 µM; Therapeutic window (Kb, D2/Kb, D4) (D4 dopamine receptors): 1.6; Sedation: decrease in motor activity ([3]; oral, dose of 10 mg/kg): negligible decrease in motor activity; IC50 (H1 receptor): 0.061 µM; Kb (D2 dopamine receptors): 0.55 µM; Concentrations of parent and metabolite in the brain [6]: consistent; Activity in relation to adrenergic receptors [7]: relatively weak activity; Functional response on M1 receptor (agonism) (M1 receptors): is an agonist and causes a significant response in the therapeutic concentration range; EC50 (H4 receptor): 2 µM
Clc1ccc2c(c1)N=C(N1CCNCC1)c1ccccc1N2 [Desmethylclozapine, N-desmethylclozapine, reference compound] |  |  |  |  |  |  |  |  |  |  |  |  |  |  |  |  |  |  |  |  | Kb (D4 dopamine receptors): 0.19 µM; Therapeutic window (Kb, D2/Kb, D4) (D4 dopamine receptors): 0.27; IC50 (H1 receptor): 0.015 µM; Kb (D2 dopamine receptors): 0.052 µM; EC50 (H4 receptor): 2.1 µM
OCCOCCN1CCN(C2=Nc3ccccc3Sc3ccccc32)CC1 [Quetiapine, quetiapine] |  |  |  |  |  |  |  |  |  |  |  |  |  |  |  |  |  |  |  |  | Increase in the risk of sedation [5]: 3.7 times
